Experiments:
KKAy diabetes mice = test: Intraperitoneal glucose tolerance test (IPGTT) in diabetes animal model; assay type: in vivo; conditions: 0.5 mg/kg once a day by oral gavage, 10 weeks; 1 g/kg glucose i.p.; vs vehicle group
Experimental: A vehicle (10% DMSO + 0.5% methylcellulose) and the compound of Example 1 (Compound 1) were administered to 6-week-old male KKAy diabetes mice (n = 6 per group) at a dose of 0.5 mg/kg once a day by oral gavage. At 10 weeks of administration, an intraperitoneal glucose tolerance test (IPGTT) was performed by intraperitoneally administering 1 g/kg of glucose, and the results are shown in FIG. 1.

[1] = system: CT26 colorectal cancer cell line; test: Anticancer efficacy in CT26 colorectal cancer tumor model; assay type: in vivo, nude mice; conditions: 1.0 mg/kg
Experimental: A colorectal cancer model was established by subcutaneously transplanting CT26 colorectal cancer cell line into nude mice. The colorectal cancer model was divided into two groups: vehicle administration group and Compound 1 administration group. […] Similar to Experimental Example 13, tumor size was calculated before drug administration and on days 3, 7, 10, 14, 18, 22, and 24 after drug administration, and body weight was measured before drug administration and on days 7, 14 and 22 after drug administration, which are shown in FIG. 22.
Additionally, tumors were extracted from the colorectal cancer model, fixed with 4% PFA solution, and subjected to TUNEL assay to determine the degree of apoptosis induction, and the results are shown in FIG. 22. As shown in the middle of FIG. 22, 28% apoptosis was induced in the vehicle administration group, and 72% apoptosis was induced in the 1.0 mg/kg compound 1 administration group, and statistical significance between these values was also verified (*p<0.01 versus the vehicle administration group).

C57BL6J mice = test: LPS-induced sepsis animal model, viability; assay type: in vivo; conditions: 15 mg/kg i.p. 30 min before 50 mg/kg LPS
Experimental: 50 mg/kg of lipopolysaccharide (LPS) administration dose corresponds to the 'half lethal dose' that causes death of one half of the population within 24 hours. […] The animal experiment was conducted with six 8-week-old male C57BL6J mice per group. Each mouse was intraperitoneally administered 15 mg/kg of Compound 1 or pretreated with 100 µL of 10% DMSO (vehicle control). 30 minutes later, 50 mg/kg lipopolysaccharide was intraperitoneally injected into each mouse, and the viability was examined for 80 hours, and the results are shown in FIG. 9 and Table 2.

bladder cancer cells = test: Growth inhibition (Cell Counting Kit-8), bladder cancer cells; assay type: cell-based; conditions: 24 hours, 0.5% FBS
Experimental: (§1) In order to verify the growth inhibitory effect of Compound 1 on various normal and cancer cell lines, 25 types of cell lines listed in Table 7 below were tested. In detail, each cell was seeded at a density of 2 × 10^4 cells/well in a 96-well plate and cultured for 24 hours, and then the medium was replaced with a medium comprising 0.5% (for cancer cells) or 10% (for normal cells) FBS, and Compound 1 was treated at various concentrations. 24 hours later, 10 µL of Cell Counting Kit-8 (Dojindo Molecular Technologies) was added, and 1 hour later, absorbance at 480 nm was measured using a microplate reader (TECAN SPARK), and the results are shown in FIGS. 15 to 21.

mice = test: Acute pancreatitis animal model (cerulein-induced); assay type: in vivo; conditions: 5 µg/kg or 10 µg/kg tail vein; dose-dependent
Experimental: Acute pancreatitis was induced by intraperitoneal administration of cerulein (50 µg/kg) dissolved in saline to 8-week-old male mice. Compound 1 was administered at a concentration of 5 µg/kg or 10 µg/kg into the tail vein 24 hours and 1 hour before cerulein administration, and cerulein was intraperitoneally administered six times at 1-hour intervals. 18 hours after the first cerulein administration, the mice were anesthetized, the serum was separated, and the amylase and lipase activities in the serum were measured, which are shown in FIG. 8.

[2] = system: HCT-116 colorectal cancer cell line; test: Anticancer efficacy in HCT-116 colorectal cancer tumor model; assay type: in vivo, nude mice; conditions: for reduced tumor growth (tumor volume) compared to vehicle: 21 times, day 24
Experimental: A colorectal cancer model was established by subcutaneously transplanting HCT-116 colorectal cancer cell line into nude mice. The colorectal cancer model was divided into the following three groups: Group 1 was administered a vehicle as a control group, Group 2 was administered 0.5 mg/kg of Compound 1, and Group 3 was administered 1.0 mg/kg of Compound 1. The drug was orally administered once a day for a total of 21 times. To evaluate the therapeutic efficacy, the tumor size was measured before drug administration and on days 3, 7, 10, 14, 17, 21, and 24 after drug administration. The tumor size was calculated as follows: Tumor size (mm^3) = (A×B^2)/2 [formula] wherein A and B represent the tumor long axis and short axis, respectively.
In addition, the body weight was measured before drug administration and on days 7, 14, and 21 after drug administration.

normal cells = test: Growth inhibition (Cell Counting Kit-8), normal cells; assay type: cell-based; conditions: 24 hours, 10% FBS; concentration of up to less than 40 µM
Experimental: as §1

NCI-H295R cells = test: Cortisol production (ELISA), Cushing's syndrome cell model; assay type: cell-based, human; conditions: 0.1 µM, 0.5 µM, and 1 µM; 0.5 mM 8-Br-cAMP; concentration-dependent
Experimental: NCI-H295R cells (ATCC #CRL-2128), which are a human adrenocortical carcinoma cell line, were seeded at a density of 2.5 × 10^5 cells/well in a 24-well plate. The cells were cultured for 48 hours, and then they were pretreated with Compound 1 (0.1 µM, 0.5 µM, and 1 µM) for 12 hours. Furthermore, to increase cortisol synthesis, the cells were treated with 8-bromoadenosine […] monophosphate (8-Br-cAMP) at a concentration of 0.5 mM, and then re-treated with Compound 1, and allowed to react for 24 hours. After the reaction, the cell culture medium was collected, and the amount of cortisol produced in the cells was measured using an ELISA kit, and the results are shown in FIG. 14.

With CC(C(=O)NNc1ccc(F)cc1)n1cc(-c2cc(F)cc3c2-c2ccccc2C3(O)C(F)(F)F)cn1 (centres unmarked) [Example 1, 2-(4-(2-fluoro-9-hydroxy-9-(trifluoromethyl)-9H-fluoren-4-yl)-1H-pyrazol-1-yl)-N'-(4-fluorophenyl)propanehydrazide] the “blood glucose increase (IPGTT)” value (KKAy diabetes mice) was “significantly suppressed”, the “decrease in tumor growth (tumor volume) compared to vehicle” value ([1]; day 24) was 55% and the “change in the body weight” value ([1]; days 7, 14, 22) was “Neither the vehicle administration group nor the compound 1 administration group showed any change in the body weight”. The “apoptosis induced in tumor (TUNEL assay)” value ([1]; vehicle group 28%) was 72%, the “Viability (%)” value (C57BL6J mice; Time 0 h) was 100% and the “Viability (%)” value (C57BL6J mice; Time 20 h) was 100%. For the same compound, the “Viability (%)” value (C57BL6J mice; Time 60 h) was 50%, the “Viability (%)” value (C57BL6J mice; Time 70 h) was 50% and the “Viability (%)” value (C57BL6J mice; Time 80 h) was 50%. For the same compound, the “concentration at which viability began to rapidly decrease to 70% or less” value (bladder cancer cells) was “less than 1.2 µM”, the serum amylase activity (mice) was “decreased” and the serum lipase activity (mice) was “decreased”. The body weight change ([2]; 0.5 mg/kg and 1.0 mg/kg oral, days 7, 14, 21) was “no significant body weight change”, the “reduced tumor growth (tumor volume) compared to vehicle” value ([2]; 0.5 mg/kg oral once a day) was 41% and the “reduced tumor growth (tumor volume) compared to vehicle” value ([2]; 1.0 mg/kg oral once a day) was 49%. The viability (normal cells) was no less than 70% and the cortisol production (NCI-H295R cells) was “significantly inhibited”.
